Experimental data: patent US11767310B2, “Nicotinamide RIPK1 inhibitors” (AbbVie Inc., priority 2021, dated 2023)
Like-named read-outs stand apart in the source and are kept apart here.

Key:
Experiment in all cases: Kinase binding screen
Conditions in all cases: read-out: Percent Control at 100 nM Compound Concentration
ABL2 = ABL2 (Homo sapiens (Human), UniProt P42684)
ANKK1 = ANKK1 (Homo sapiens (Human), UniProt Q8NFD2)
ARK5 = ARK5 (Homo sapiens (Human), UniProt O60285)
BMX = BMX (Homo sapiens (Human), UniProt P51813)
BRSK1 = BRSK1 (Homo sapiens (Human), UniProt Q8TDC3)
CAMK2G = CAMK2G (Homo sapiens (Human), UniProt Q13555)
Sequence of CAMK2G (Q13555 whole entry): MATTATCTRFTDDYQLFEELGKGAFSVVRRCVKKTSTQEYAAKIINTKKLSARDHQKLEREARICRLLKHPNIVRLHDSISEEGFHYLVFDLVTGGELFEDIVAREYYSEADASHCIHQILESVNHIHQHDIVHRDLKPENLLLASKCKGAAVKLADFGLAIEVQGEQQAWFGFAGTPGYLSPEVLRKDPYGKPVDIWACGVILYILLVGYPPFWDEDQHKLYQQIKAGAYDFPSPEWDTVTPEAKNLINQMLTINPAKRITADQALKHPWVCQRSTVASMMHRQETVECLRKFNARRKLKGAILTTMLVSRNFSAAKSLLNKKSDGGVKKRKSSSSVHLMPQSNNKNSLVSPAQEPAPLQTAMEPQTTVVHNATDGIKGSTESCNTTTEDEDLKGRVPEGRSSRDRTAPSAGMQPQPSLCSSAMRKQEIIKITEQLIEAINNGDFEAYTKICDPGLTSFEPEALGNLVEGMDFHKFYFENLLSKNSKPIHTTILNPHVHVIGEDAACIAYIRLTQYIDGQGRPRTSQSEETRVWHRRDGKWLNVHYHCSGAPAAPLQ

CDK5 = CDK5 (Homo sapiens (Human), UniProt Q00535)
Sequence of CDK5 (Q00535 whole entry): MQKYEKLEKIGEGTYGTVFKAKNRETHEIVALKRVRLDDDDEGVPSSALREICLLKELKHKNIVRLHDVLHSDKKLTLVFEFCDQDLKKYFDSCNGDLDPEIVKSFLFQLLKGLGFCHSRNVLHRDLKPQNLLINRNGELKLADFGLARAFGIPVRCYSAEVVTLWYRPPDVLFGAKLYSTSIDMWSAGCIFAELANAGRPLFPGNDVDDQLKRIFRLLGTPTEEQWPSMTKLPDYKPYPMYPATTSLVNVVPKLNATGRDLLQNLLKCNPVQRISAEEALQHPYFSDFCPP

CSNK1A1 = CSNK1A1 (Homo sapiens (Human), UniProt P48729)
DCAMKL3 = DCAMKL3 (Homo sapiens (Human), UniProt Q9C098)
Sequence of DCAMKL3 (Q9C098 whole entry, looked up): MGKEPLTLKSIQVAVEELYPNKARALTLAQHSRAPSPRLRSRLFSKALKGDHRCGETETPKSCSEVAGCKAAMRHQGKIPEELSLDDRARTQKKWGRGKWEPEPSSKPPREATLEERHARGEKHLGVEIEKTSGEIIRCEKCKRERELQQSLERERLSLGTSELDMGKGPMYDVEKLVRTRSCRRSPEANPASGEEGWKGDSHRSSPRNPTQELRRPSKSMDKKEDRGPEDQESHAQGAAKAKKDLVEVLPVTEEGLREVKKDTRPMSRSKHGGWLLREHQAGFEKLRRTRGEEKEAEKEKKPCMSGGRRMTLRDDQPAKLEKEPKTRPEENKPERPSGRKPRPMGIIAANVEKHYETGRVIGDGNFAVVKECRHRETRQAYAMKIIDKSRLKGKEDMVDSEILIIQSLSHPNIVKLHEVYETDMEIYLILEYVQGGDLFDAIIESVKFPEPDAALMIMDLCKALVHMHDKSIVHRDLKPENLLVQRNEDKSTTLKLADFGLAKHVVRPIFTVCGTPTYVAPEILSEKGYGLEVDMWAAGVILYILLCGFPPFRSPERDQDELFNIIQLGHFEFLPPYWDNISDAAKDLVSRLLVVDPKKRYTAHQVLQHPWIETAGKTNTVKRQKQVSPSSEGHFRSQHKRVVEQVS

DRAK1 = DRAK1 (Homo sapiens (Human), UniProt Q9UEE5)
Sequence of DRAK1 (Q9UEE5 whole entry): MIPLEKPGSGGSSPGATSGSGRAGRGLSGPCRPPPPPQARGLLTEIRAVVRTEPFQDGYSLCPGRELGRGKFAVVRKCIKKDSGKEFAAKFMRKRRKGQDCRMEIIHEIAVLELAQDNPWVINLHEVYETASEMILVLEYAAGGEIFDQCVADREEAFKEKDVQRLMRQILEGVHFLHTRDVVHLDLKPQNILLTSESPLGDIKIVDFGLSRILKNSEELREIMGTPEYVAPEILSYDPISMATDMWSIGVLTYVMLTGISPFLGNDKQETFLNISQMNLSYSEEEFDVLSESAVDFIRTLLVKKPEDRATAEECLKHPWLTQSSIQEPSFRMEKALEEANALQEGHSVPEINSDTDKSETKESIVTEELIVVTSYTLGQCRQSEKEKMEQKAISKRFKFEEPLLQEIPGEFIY

EGFR(L747-T751del,Sins) = EGFR(L747-T751del,Sins) (Homo sapiens (Human), UniProt P00533, DEL747-751/INS746S)
Sequence of EGFR(L747-T751del,Sins) (P00533 other isoform, or with tags, fused parts or gaps del 1-668/ins S behind 746/del 747-751/del 1012-1210 limits assumed): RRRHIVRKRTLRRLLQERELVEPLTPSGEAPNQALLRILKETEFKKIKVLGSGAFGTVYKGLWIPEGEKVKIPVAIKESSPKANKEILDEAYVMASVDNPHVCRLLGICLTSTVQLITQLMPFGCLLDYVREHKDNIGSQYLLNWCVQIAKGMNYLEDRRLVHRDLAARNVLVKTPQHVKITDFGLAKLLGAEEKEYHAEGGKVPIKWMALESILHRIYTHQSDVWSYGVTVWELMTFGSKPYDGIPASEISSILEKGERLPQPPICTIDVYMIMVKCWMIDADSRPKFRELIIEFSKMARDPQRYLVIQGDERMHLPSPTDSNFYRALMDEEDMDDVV

FER = FER (Homo sapiens (Human), UniProt P16591)
Sequence of FER (P16591 whole entry): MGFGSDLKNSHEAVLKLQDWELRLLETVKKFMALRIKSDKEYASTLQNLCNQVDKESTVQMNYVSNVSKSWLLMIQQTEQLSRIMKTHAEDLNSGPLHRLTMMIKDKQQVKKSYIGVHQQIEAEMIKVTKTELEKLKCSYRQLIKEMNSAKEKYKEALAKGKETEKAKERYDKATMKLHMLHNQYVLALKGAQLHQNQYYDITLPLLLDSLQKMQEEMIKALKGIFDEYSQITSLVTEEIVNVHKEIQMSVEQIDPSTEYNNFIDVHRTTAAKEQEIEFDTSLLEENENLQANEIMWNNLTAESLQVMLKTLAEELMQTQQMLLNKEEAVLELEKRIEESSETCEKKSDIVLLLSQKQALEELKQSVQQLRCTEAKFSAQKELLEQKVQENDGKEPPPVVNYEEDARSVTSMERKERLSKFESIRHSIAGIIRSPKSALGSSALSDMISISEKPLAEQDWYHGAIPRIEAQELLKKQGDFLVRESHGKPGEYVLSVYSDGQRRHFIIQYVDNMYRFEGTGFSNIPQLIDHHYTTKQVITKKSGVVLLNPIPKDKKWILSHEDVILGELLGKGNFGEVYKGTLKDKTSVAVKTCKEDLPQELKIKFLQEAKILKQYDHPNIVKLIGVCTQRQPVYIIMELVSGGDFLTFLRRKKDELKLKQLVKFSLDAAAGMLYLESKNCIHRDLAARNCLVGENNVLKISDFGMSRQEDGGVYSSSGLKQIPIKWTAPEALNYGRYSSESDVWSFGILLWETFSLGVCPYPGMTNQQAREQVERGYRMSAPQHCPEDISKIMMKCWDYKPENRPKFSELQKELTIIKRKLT

FLT3 = FLT3 (Homo sapiens (Human), UniProt P36888)
FLT3(D835V) = FLT3(D835V) (Homo sapiens (Human), UniProt P36888, D835V)
HIPK2 = HIPK2 (Homo sapiens (Human), UniProt Q9H2X6)
KIT(V559D,T670I) = KIT(V559D,T670I) (Homo sapiens (Human), UniProt P10721, T670I/V559D)
LOK = LOK (Homo sapiens (Human), UniProt O94804)
MAP4K2 = MAP4K2 (Homo sapiens (Human), UniProt Q12851)
MARK2 = MARK2 (Homo sapiens (Human), UniProt Q7KZI7)
MARK4 = MARK4 (Homo sapiens (Human), UniProt Q96L34)
MKK7 = MKK7 (Homo sapiens (Human), UniProt O14733)
MLCK = MLCK (Homo sapiens (Human), UniProt Q32MK0)
MRCKA = MRCKA (Homo sapiens (Human), UniProt Q5VT25)
PAK7 = PAK7 (Homo sapiens (Human), UniProt Q9P286)
PIK3C2B = PIK3C2B (Homo sapiens (Human), UniProt O00750)
PRKCE = PRKCE (Homo sapiens (Human), UniProt Q02156)
SNRK = SNRK (Homo sapiens (Human), UniProt Q9NRH2)
Sequence of SNRK (Q9NRH2 whole entry): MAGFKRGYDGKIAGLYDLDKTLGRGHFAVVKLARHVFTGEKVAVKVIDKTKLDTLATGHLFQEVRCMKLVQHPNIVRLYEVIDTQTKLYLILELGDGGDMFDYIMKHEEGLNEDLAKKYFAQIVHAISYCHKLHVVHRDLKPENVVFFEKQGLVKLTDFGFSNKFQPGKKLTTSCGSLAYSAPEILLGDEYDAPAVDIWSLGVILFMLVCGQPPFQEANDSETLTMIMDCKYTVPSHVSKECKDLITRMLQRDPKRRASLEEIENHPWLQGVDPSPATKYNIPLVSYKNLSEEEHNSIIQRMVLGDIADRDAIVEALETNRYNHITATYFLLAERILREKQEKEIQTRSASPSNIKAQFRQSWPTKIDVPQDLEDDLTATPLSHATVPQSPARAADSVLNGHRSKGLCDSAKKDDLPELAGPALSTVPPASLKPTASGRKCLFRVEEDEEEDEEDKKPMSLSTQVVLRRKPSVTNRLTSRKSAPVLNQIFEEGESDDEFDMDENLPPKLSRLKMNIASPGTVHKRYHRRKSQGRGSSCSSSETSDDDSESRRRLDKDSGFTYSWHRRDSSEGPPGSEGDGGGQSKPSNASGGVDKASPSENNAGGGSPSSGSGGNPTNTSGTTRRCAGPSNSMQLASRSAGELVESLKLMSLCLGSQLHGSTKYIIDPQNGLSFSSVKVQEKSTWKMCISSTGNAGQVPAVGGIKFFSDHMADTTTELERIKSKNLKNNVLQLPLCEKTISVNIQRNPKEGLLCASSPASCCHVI

SRC = SRC (Homo sapiens (Human), UniProt P12931)
TNK1 = TNK1 (Homo sapiens (Human), UniProt Q13470)

Sequence of ABL2 (P42684 whole entry): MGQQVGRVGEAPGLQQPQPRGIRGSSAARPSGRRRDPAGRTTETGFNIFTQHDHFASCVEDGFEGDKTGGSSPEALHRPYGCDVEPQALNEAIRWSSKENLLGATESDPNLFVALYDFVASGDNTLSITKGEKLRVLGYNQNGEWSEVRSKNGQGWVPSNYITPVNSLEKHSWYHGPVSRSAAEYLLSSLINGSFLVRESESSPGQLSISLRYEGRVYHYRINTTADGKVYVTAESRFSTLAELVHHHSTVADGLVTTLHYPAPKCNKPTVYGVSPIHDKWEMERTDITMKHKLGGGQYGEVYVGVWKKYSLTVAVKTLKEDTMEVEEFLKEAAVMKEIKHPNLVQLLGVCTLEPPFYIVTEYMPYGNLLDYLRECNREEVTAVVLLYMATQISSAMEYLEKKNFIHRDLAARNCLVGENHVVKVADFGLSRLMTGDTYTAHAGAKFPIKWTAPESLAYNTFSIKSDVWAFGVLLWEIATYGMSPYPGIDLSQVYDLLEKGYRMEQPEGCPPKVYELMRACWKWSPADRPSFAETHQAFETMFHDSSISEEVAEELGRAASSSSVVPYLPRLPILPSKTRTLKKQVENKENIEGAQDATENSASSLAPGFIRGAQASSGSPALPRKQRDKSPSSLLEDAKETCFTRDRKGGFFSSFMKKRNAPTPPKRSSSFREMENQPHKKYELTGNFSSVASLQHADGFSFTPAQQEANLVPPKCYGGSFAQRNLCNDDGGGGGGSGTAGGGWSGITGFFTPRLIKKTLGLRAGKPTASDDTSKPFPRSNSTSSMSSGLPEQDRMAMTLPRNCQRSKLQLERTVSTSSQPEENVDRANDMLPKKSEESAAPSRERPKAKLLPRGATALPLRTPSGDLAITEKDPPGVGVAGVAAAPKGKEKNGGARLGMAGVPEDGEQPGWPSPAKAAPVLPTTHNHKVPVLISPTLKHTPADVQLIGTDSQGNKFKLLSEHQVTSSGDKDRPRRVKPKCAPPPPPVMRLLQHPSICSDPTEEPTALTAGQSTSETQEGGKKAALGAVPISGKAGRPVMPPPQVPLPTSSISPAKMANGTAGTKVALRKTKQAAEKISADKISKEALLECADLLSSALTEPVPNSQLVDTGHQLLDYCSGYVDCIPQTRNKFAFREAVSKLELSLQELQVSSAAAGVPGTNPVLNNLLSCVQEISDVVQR

CN(C[C@H](Cc1ccccc1)OP(=O)(O)O)C(=O)c1cncc(C#Cc2cnn(C(F)F)c2)c1 [Example 19, (S)-1-(5-((1-(difluoromethyl)-1H-pyrazol-4-yl)ethynyl)-N-methylnicotinamido)-3-phenylpropan-2-yl dihydrogen phosphate]
remaining activity at 0.1 µM (ABL2): 98% | remaining activity at 0.1 µM (ANKK1): 100% | remaining activity at 0.1 µM (ARK5): 100% | remaining activity at 0.1 µM (BMX): 100% | remaining activity at 0.1 µM (BRSK1): 99% | remaining activity at 0.1 µM (CAMK2G): 100% | remaining activity at 0.1 µM (CDK5): 100% | remaining activity at 0.1 µM (CSNK1A1): 92% | remaining activity at 0.1 µM (DCAMKL3): 100% | remaining activity at 0.1 µM (DRAK1): 100% | remaining activity at 0.1 µM (EGFR(L747-T751del,Sins)): 79% | remaining activity at 0.1 µM (FER): 96% | remaining activity at 0.1 µM (FLT3): 100% | remaining activity at 0.1 µM (FLT3(D835V)): 100% | remaining activity at 0.1 µM (HIPK2): 79% | remaining activity at 0.1 µM (KIT(V559D,T670I)): 100% | remaining activity at 0.1 µM (LOK): 100% | remaining activity at 0.1 µM (MAP4K2): 83% | remaining activity at 0.1 µM (MARK2): 100% | remaining activity at 0.1 µM (MARK4): 94% | remaining activity at 0.1 µM (MKK7): 96% | remaining activity at 0.1 µM (MLCK): 100% | remaining activity at 0.1 µM (MRCKA): 100% | remaining activity at 0.1 µM (PAK7): 100% | remaining activity at 0.1 µM (PIK3C2B): 100% | remaining activity at 0.1 µM (PRKCE): 68% | remaining activity at 0.1 µM (SNRK): 100% | remaining activity at 0.1 µM (SRC): 100% | remaining activity at 0.1 µM (TNK1): 100%

CN(C[C@@H](O)Cc1ccccc1)C(=O)c1cncc(C#Cc2cnn(C(F)F)c2)c1 [Example 2, (S)-5-((1-(difluoromethyl)-1H-pyrazol-4-yl)ethynyl)-N-(2-hydroxy-3-phenylpropyl)-N-methylnicotinamide]
remaining activity at 0.1 µM (ABL2; ABL2): 100% | remaining activity at 0.1 µM (ANKK1; ANKK1): 100% | remaining activity at 0.1 µM (ARK5; ARK5): 100% | remaining activity at 0.1 µM (BMX; BMX): 100% | remaining activity at 0.1 µM (BRSK1; BRSK1): 99% | remaining activity at 0.1 µM (CAMK2G; CAMK2G): 94% | remaining activity at 0.1 µM (CDK5; CDK5): 100% | remaining activity at 0.1 µM (CSNK1A1; CSNK1A1): 100% | remaining activity at 0.1 µM (DCAMKL3; DCAMKL3): 100% | remaining activity at 0.1 µM (DRAK1; DRAK1): 95% | remaining activity at 0.1 µM (EGFR(L747-T751del,Sins); EGFR(L747-T751del,Sins)): 100% | remaining activity at 0.1 µM (FER; FER): 100% | remaining activity at 0.1 µM (FLT3; FLT3): 100% | remaining activity at 0.1 µM (FLT3(D835V); FLT3(D835V)): 100% | remaining activity at 0.1 µM (HIPK2; HIPK2): 99% | remaining activity at 0.1 µM (KIT(V559D,T670I); KIT(V559D,T670I)): 97% | remaining activity at 0.1 µM (LOK; LOK): 100% | remaining activity at 0.1 µM (MAP4K2; MAP4K2): 88% | remaining activity at 0.1 µM (MARK2; MARK2): 96% | remaining activity at 0.1 µM (MARK4; MARK4): 91% | remaining activity at 0.1 µM (MKK7; MKK7): 98% | remaining activity at 0.1 µM (MLCK; MLCK): 100% | remaining activity at 0.1 µM (MRCKA; MRCKA): 100% | remaining activity at 0.1 µM (PAK7; PAK7): 100% | remaining activity at 0.1 µM (PIK3C2B; PIK3C2B): 100% | remaining activity at 0.1 µM (PRKCE; PRKCE): 72% | remaining activity at 0.1 µM (SNRK; SNRK): 100% | remaining activity at 0.1 µM (SRC; SRC): 97% | remaining activity at 0.1 µM (TNK1; TNK1): 100%
